According to patent US8445409B2, “Use of 5-benzyloxymethyl-1,2-isoxazoline derivatives as a herbicide” (Moghu Research Center Ltd., priority 2007, dated 2013):
Entries after “also recorded” stand apart in the source; their conditions may differ.

Assays:
[1] = tested on: Corn; experiment: Upland pot test, pre-/post-emergence spray, visual rating; format: in vivo, corn (ZEAMX); details: for Visual measurement: Crops, Corn: 2 weeks after spray, 0-10 scale (10=completely killed)
From the text: (§1) To a rectangular plastic pot having a surface area of 300 cm^2, mixed soils including blend bed soil (Boonong, Horticultural Bed Soil No. 3) and sandy loam soil were filled (mixing ratio, 1:1). Seeds of the eight different types of weeds including gramineous weed such as barnyardgrass, large crabgrass, green foxtail, fall panicum, and broadleaf weed such as common cocklebur, velvetleaf, Indian joint-vetch, and morningglory were sown. To the other pot containing the same soil mixture, seeds of the five different types of crops including corn, soybean, cotton, wheat and rice were sown. Pots were kept in a greenhouse of which temperature was maintained at 25˜30° C. (day) or 15˜25° C. (night), and regularly watered.
(§2) After fourteen days and when the crops and the weeds reached their three-leaf stage, the other set of a crop pot and a weed pot were prepared by the same method as described above. Then, “test substance” was sprayed thereto. In this case, spray treatment to the plants after they have grown for two weeks corresponded to post-emergence treatment while spray treatment to the seeds right after the sowing corresponded to pre-emergence treatment. Spray was carried out by using a track sprayer (R&D Sprayer, USA) equipped with a Teejet 8002 nozzle (Spraying Systems Co., USA). Spray volume was adjusted to 300 L/ha. The spray solution was prepared by dissolving the “test substance” in acetone and adding the same volume of 0.2% (v/v) Tween 20 aqueous solution. Dosage of the test substance was 500, 250, 125, 62.5 or 31.3 g/ha. Two weeks after the spray of the test substance, efficacy and phytotoxic effect to the crops and the weeds were visually measured based on a 0 to 10 scale (0: no efficacy, 10: completely killed).

[2] = tested on: Rice; experiment: as above; format: in vivo, rice (ORYSA); details: for Visual measurement: Crops, Rice: 2 weeks after spray, 0-10 scale (10=completely killed)
From the text: as §1, §2

[3] = tested on: Barnyardgrass; experiment: as above; format: in vivo, barnyardgrass (ECHCG); details: 2 weeks after spray, 0-10 scale (10=completely killed)
From the text: as §1, §2

[4] = tested on: Foxtail; experiment: as above; format: in vivo, green foxtail (SETVI); details: 2 weeks after spray, 0-10 scale (10=completely killed)
From the text: as §1, §2

[5] = tested on: Zoysiagrass; experiment: Turfgrass safety test (sod mat pots), visual phytotoxicity; format: in vivo, Zoysia japonica; details: in vivo
From the text: (§3) Commercially available sod mats of zoysiagrass and bentgrass, Kentucky bluegrass, and perennial ryegrass were purchased. After cutting each turf sod mat in a size of 10 cm×20 cm, it was transplanted to a rectangular plastic pot having a surface area of 300 cm^2 wherein mixed soils including blend of a bed soil (Boonong, Horticultural Nursery Soil No. 3) and sandy loam soil were filled (mixing ratio, 1:1). After transplanting, the grass was mowed (0.5˜1.0 cm in height) once a week, and kept for one month in a greenhouse maintained at 25˜30° C. (day) or 15˜25° C. (night), then the test substance of the present invention was applied at dosage of 4, 2, 1 and 0.5 kg/ha. As a reference, Dithiopyr (32% EC, manufactured by Dongbu Hannong Chemical Company, KOREA) was applied at the recommended rate of 0.48 kg/ha, or twice or quadruple amount thereof, i.e., 0.96 and 1.92 kg/ha, respectively. Spray was made by a track sprayer equipped with a Teejet 8002 nozzle. Spray volume was adjusted to 2,000 L/ha, which was a typical value for an Asian (Korea and Japan) golf course. The spray solution was prepared by dissolving the “test substance” in acetone and adding the same volume of 0.2% (v/v) Tween 20 aqueous solution. Two, four or six weeks after the spray of the test substance, phytotoxicity to the turfgrass were visually evaluated based on 0 to 10 scale (0: no phytotoxic effect, 10: completely killed). The test was conducted in a randomized block design with a three replicates and the results were summarized in the following Table 2 is an average value of the replicates.

[6] = tested on: Bentgrass; experiment: as above; format: in vivo; details: in vivo
From the text: as §3

[7] = tested on: Kentucky bluegrass; experiment: as above; format: in vivo; details: in vivo
From the text: as §3

[8] = tested on: Perennial ryegrass; experiment: as above; format: in vivo; details: in vivo
From the text: as §3

[9] = tested on: gramineous weeds such as barnyardgrass, green foxtail, large crabgrass and fall panicum; experiment: Upland pot test, gramineous weeds as a group; format: in vivo
From the text: as §1, §2

[10] = tested on: crops such as corn, rice, wheat, soybean and cotton; experiment: Upland pot test, crops as a group; format: in vivo; details: pre-emergence, 500 g/ha
From the text: as §1
After fourteen days and when the crops and the weeds reached their three-leaf stage, the other set of a crop pot and a weed pot were prepared by the same method as described above. Then, “test substance” was sprayed thereto. In this case, spray treatment to the plants after they have grown for two weeks corresponded to post-emergence treatment while spray treatment to the seeds right after the sowing corresponded to pre-emergence treatment. […] Two weeks after the spray of the test substance, efficacy and phytotoxic effect to the crops and the weeds were visually measured based on a 0 to 10 scale (0: no efficacy, 10: completely killed).

[11] = tested on: Large crabgrass; experiment: Herbicidal activity at different growth stages, fresh weight suppression; format: in vivo; details: .12 kg/ha, fresh weight two weeks after treatment
[12] = post-emergence foliar spray at three leaf stage, 31.2 g/ha
[13] = post-emergence foliar spray at three leaf stage, 62.5 g/ha
[14] = post-emergence foliar spray at three leaf stage, 125 g/ha
[15] = post-emergence foliar spray at three leaf stage, 250 g/ha
[16] = post-emergence foliar spray at three leaf stage, 500 g/ha
[17] = pre-emergence soil treatment, 31.2 g/ha
[18] = pre-emergence soil treatment, 62.5 g/ha
[19] = pre-emergence soil treatment, 125 g/ha
[20] = pre-emergence soil treatment, 250 g/ha
[21] = pre-emergence soil treatment, 500 g/ha

Cc1ccsc1C1=NOC(C)(COCc2c(F)cccc2F)C1 (centres unmarked) [test substance, 5-(2,6-difluorobenzyl)oxymethyl-5-methyl-3-(4-methylthiophen-5-yl)-1,2-isoxazoline]
Visual measurement: Crops, Corn [1, 12]: 0 | Visual measurement: Crops, Corn [1, 13]: 2 | Visual measurement: Crops, Corn [1, 14]: 2 | Visual measurement: Crops, Corn [1, 15]: 3 | Visual measurement: Crops, Corn [1, 16]: 8 | Safety to corn (in words) ([1]; post-emergence treatment): not safe | Visual measurement: Crops, Corn [1, 17]: 0 | Visual measurement: Crops, Corn [1, 18]: 0 | Visual measurement: Crops, Corn [1, 19]: 0 | Visual measurement: Crops, Corn [1, 20]: 0 | Visual measurement: Crops, Corn [1, 21]: 0 | Visual measurement: Crops, Rice [2, 12]: 0 | Visual measurement: Crops, Rice [2, 13]: 0 | Visual measurement: Crops, Rice [2, 14]: 0 | Visual measurement: Crops, Rice [2, 15]: 0 | Visual measurement: Crops, Rice [2, 16]: 0 | Safety to rice (in words) ([2]; post-emergence treatment): safe | Visual measurement: Crops, Rice [2, 17]: 0 | Visual measurement: Crops, Rice [2, 18]: 0 | Visual measurement: Crops, Rice [2, 19]: 0 | Visual measurement: Crops, Rice [2, 20]: 0 | Visual measurement: Crops, Rice [2, 21]: 0 | Visual measurement: Gramineous weed, Barnyardgrass [3, 12]: 0 | Visual measurement: Gramineous weed, Barnyardgrass [3, 13]: 2 | Visual measurement: Gramineous weed, Barnyardgrass [3, 14]: 3 | Visual measurement: Gramineous weed, Barnyardgrass [3, 15]: 7 | Visual measurement: Gramineous weed, Barnyardgrass [3, 16]: 9 | Visual measurement: Gramineous weed, Barnyardgrass [3, 17]: 2 | Visual measurement: Gramineous weed, Barnyardgrass [3, 18]: 4 | Visual measurement: Gramineous weed, Barnyardgrass [3, 19]: 10 | Visual measurement: Gramineous weed, Barnyardgrass [3, 20]: 10 | Visual measurement: Gramineous weed, Barnyardgrass [3, 21]: 10 | Visual measurement: Gramineous weed, Foxtail [4, 12]: 0 | Visual measurement: Gramineous weed, Foxtail [4, 13]: 1 | Visual measurement: Gramineous weed, Foxtail [4, 14]: 2 | Visual measurement: Gramineous weed, Foxtail [4, 15]: 5 | Visual measurement: Gramineous weed, Foxtail [4, 16]: 9 | Visual measurement: Gramineous weed, Foxtail [4, 17]: 1 | Visual measurement: Gramineous weed, Foxtail [4, 18]: 3 | Visual measurement: Gramineous weed, Foxtail [4, 19]: 9 | Visual measurement: Gramineous weed, Foxtail [4, 20]: 9 | Visual measurement: Gramineous weed, Foxtail [4, 21]: 10 | Phytotoxic effect, visual assessment: Zoysiagrass Week 6 ([5]; Zoysia japonica (zoysiagrass), 6 weeks): 0.0 | Phytotoxic effect, visual assessment: Zoysiagrass Week 2 [5]: 2.7 | Phytotoxic effect, visual assessment: Zoysiagrass Week 4 [5]: 1.7 | Phytotoxic effect, visual assessment: Zoysiagrass Week 6 [5]: 1.0 | Phytotoxic effect, visual assessment: Zoysiagrass Week 2 ([5]; zoysiagrass (Zoysia japonica), 2 weeks): 0.0 | Phytotoxic effect, visual assessment: Zoysiagrass Week 4 ([5]; zoysiagrass (Zoysia japonica), 4 weeks): 0.0 | Phytotoxic effect, visual assessment: Zoysiagrass Week 6 ([5]; zoysiagrass (Zoysia japonica), 6 weeks): 0.0 | Phytotoxic effect, visual assessment: Bentgrass Week 2 [6]: 2.3 | Phytotoxic effect, visual assessment: Bentgrass Week 4 [6]: 3.0 | Phytotoxic effect, visual assessment: Kentucky bluegrass Week 6 ([7]; Kentucky bluegrass, 6 weeks): 0.0 | Phytotoxic effect, visual assessment: Kentucky bluegrass Week 6 [7]: 1.0 | Safety to Kentucky bluegrass (in words) [7]: safe | Phytotoxic effect, visual assessment: Perennial ryegrass Week 2 [8]: 3.0 | Phytotoxic effect, visual assessment: Perennial ryegrass Week 4 [8]: 2.7 | Phytotoxic effect, visual assessment: Perennial ryegrass Week 6 [8]: 2.0 | Safety to perennial ryegrass (in words) [8]: safe | Control of gramineous weeds (in words) ([9]; post-emergence treatment at three-leaf stage, FIG. 2): well controlled | Control of gramineous weeds (in words) ([9]; post-emergence treatment, 500 g/ha): most of the gramineous weeds were controlled | Control of gramineous weeds (in words) ([9]; pre-emergence treatment, 125 g/ha or more, FIG. 1): remarkable effect of controlling all of the gramineous weeds; also recorded: effectively controlled | Phytotoxic effect to crops (in words) [10]: completely safe without any phytotoxic effect | Suppression ratio relative to the biomass of the untreated group: Large crabgrass 1 leaf [11]: 95% | Suppression ratio relative to the biomass of the untreated group: Large crabgrass 3 leaf [11]: 23% | Suppression ratio relative to the biomass of the untreated group: Large crabgrass PRE [11]: 84%
